Ends that are not written are not given here.

The test system of this series is Caco-2 cell monolayers. Description: Transepithelial transport through Caco-2 monolayer. It counts as in vitro ADME. To be noted: 1 h, 37 °C, UHPLC-HRMS. How it is done:
Caco-2 cells were obtained from Sigma-Aldrich and were grown Dulbecco’s modified minimum essential medium (DMEM), supplemented with 20% fetal bovine serum (FBS), […] L-glutamine, 100 U/mL penicillin and 100 μg/mL streptomycin at 37 °C in and 5% CO2. Cells were seeded onto Transwell inserts permeable membrane support (0.4 µm pore, 24 mm diameter, 4.7 cm^2 grown surface from Merck Co., Bedford, MA, USA) placed in six-well plates. The seeding density was 12,000 cell/cm^2. The medium was replaced every 2–3 days and cells were growing for 21 days. On the 21st day of the procedure, the integrity of the Caco-2 monolayer was assessed by the measurement of transepithelial electrical resistance (TEER) using a Millicell ERS-2 voltammeter (EMD Millipore, Darmstadt, Germany) selecting the ones with TEER values higher than 200 Ω/cm^2.
For the transport study, Caco-2 cells, maintained in DMEM, were gently rinsed with Hank’s balanced salt solution (HBSS) and equilibrated for 20 min at 37 °C prior to the transport study. Then, it was evaluated the transepithelial transport of the peptide […] (1 mM) dissolved in HBSS and the digests obtained in the in vitro simulated digestion (G60 and D60). […] or the peptide digests G60 and D60 were added to the apical (AP) chamber and were incubated for 1 h at 37 °C. After this time, triplicates of the AP chamber content and the basolateral (BL) chamber content were taken and stored at −80 °C until ultra-high performance liquid chromatography-high resolution mass spectrometry (UHPLC-HRMS) analyses.
Samples obtained from in vitro peptide simulated digestion and Caco-2 monolayers were diluted 10 times with water (0.1% FA) and centrifuged (15,000 rpm, 15 min, 4 °C). Supernatants were directly analyzed by UHPLC-HRMS to avoid the loss of polar peptide fragments. Extensive clean-up or pre-concentration procedures were not necessary due to the high concentration of peptide and low matrix complexity than plasma samples.
The obtained purified solutions from plasma and peptide digests G60 and D60 and from AP and BL chambers in Caco-2 experiment were analyzed using a UHPLC 1290 Infinity II Series coupled to a QqQ 6490 Series (Agilent Technologies, Santa Clara, CA, USA) for tandem mass experiments or a qTOF 6550 Series (Agilent Technologies) for high-resolution mass spectrometry experiments. Chromatographic separation of peptide or their fragments were performed using a Kinetex 2.6 µm EVO C18 column (150 × 2.1 mm, […]) from (Phenomenex, Torrance, USA) as stationary phase and water containing 0.1% formic acid (solvent A) and acetonitrile (solvent B) as mobile phase. The separation was performed in gradient elution as follows: isocratic; 0–0.5 min, 2 % B; 0.5–1 min, 2–6% B; 1–5 min, 6–15% B; 5–6 min, 15–35% B; 6–10 min, 35–98% B; 10–12 min, 98% B isocratic; 12–12.10, 98–2% B. For all runs, 10 μL of the sample (4 °C) was injected, and the flow rate was 0.350 mL/min and the column temperature was 25 °C.
For in vitro simulated digestion experiments and Caco-2 monolayer samples, qTOF instrument was used to investigate the presence of unknown peptide fragments and previously in silico predicted peptide fragments by means of its accurate mass. Peptide and its fragments were semi-quantified using the chromatographic peak area observed in the extracted ion chromatograms using a 20 ppm mass window.
A general note: Caco-2 cells form a polarised layer with tight junctions and transporters.

For the sequence AVFQHNCQE, the “G60 % Transport” value (21 days, TEER > 200 Ω/cm^2, gastric digest G60 added to apical chamber, AP to BL, HBSS, content in basolateral chamber in comparison to apical chamber, triplicates) is 0.25%. The “Absorption through the intestinal monolayer” value (native peptide 1 mM in HBSS or digests in apical chamber) is reported as “not absorbed through the intestinal monolayer”.

Values taken from publication PMC7408493, “Implication of Opioid Receptors in the Antihypertensive Effect of a Novel Chicken Foot-Derived Peptide” (Biomolecules, 2020).
